Melting point data for 12 compounds are collected here from patent US9403776B2, “Aryl- and heteroaryl-substituted tetrahydrobenzazepines and use thereof to block reuptake of norepinephrine, dopamine, and serotonin” (Albany Molecular Research, Inc., priority 2005, dated 2016).

SMILES strings stand for the structures. Where a name gives a salt, the structure may show the parent alone.

In the case of `COc1ccc2c(c1)CN(C)CCC2c1ccc(Cl)cc1` (single isomer, unassigned; (-)) (as salt: hydrochloride) [Example 8 (−), (−)-5-(4-chlorophenyl)-8-methoxy-2-methyl-2,3,4,5-tetrahydro-1H-benzo[c]azepine], the melting point lay in the range of 210 to 211 °C.
`COc1ccc2c(c1)CN(C)CCC2c1ccc(Cl)cc1` (racemic) (as salt: hydrochloride) [Example 7, (+/−)-5-(4-chlorophenyl)-8-methoxy-2-methyl-2,3,4,5-tetrahydro-1H-benzo[c]azepine] registered a melting point of 152 to 153 °C.
Then `CN1CCC(c2ccccc2)c2ccc(C(C)(C)O)cc2C1` (single isomer, unassigned; (+)) (as salt: tartrate) [Example 18, (+)-2-(2-methyl-5-phenyl-2,3,4,5-tetrahydro-1H-benzo[c]azepin-8-yl)propan-2-ol], with 103 to 105 °C.
With `CN1CCC(c2ccc(Cl)cc2)c2ccc(N3CCOCC3)cc2C1` (single isomer, unassigned; (+)) (as salt: maleate) [Example 48, (+)-5-(4-chlorophenyl)-2-methyl-8-morpholin-4-yl-2,3,4,5-tetrahydro-1H-benzo[c]azepine], the melting point lay within 94 to 96 °C.
In turn, `CN1CCC(c2ccccc2)c2ccc(F)cc2C1.O=C(O)/C=C\C(=O)O` (stereo not drawn) gave a melting point of 153 to 155 °C.
Turning to `CN1CCC(c2ccccc2)c2ccc(N3CCN(c4ncccn4)CC3)cc2C1` (single isomer, unassigned; (+)) (as salt: tartrate) [Example 69, (+)-2-methyl-5-phenyl-8-(4-(pyrimidin-2-yl)piperazin-1-yl)-2,3,4,5-tetrahydro-1H-benzo[c]azepine], the melting point was in the range of 119 to 121 °C.
`CN1CCC(c2ccc3sccc3c2)c2ccc(-c3cncnc3)cc2C1.O=C(O)/C=C\C(=O)O` (single isomer, unassigned; (+)) [Example 104, (+)-5-(benzo[b]thiophen-5-yl)-2-methyl-8-(pyrimidin-5-yl)-2,3,4,5-tetrahydro-1H-benzo[c]azepine, maleate salt] gave a melting point of 111 to 117 °C.
Consider `CN1CCC(c2ccccc2)c2ccc(N3CCOCC3)cc2C1` (single isomer, unassigned; (+)) (as salt: maleate) [Example 34, (+)-4-(2-methyl-5-phenyl-2,3,4,5-tetrahydro-1H-benzo[c]azepin-8-yl)morpholine], for which the melting point lay within 88 to 89 °C.
Next, `CN1CCC(c2ccc(F)cc2)c2ccc(O)cc2C1` (single isomer, unassigned; (-)) (as salt: hydrochloride) [Example 14, (−)-5-(4-fluorophenyl)-2-methyl-2,3,4,5-tetrahydro-1H-benzo[c]azepin-8-ol]: 159 to 161 °C.
`CN1CCC(c2ccccc2)c2ccc(-c3ccc(N(C)C)nn3)cc2C1` (single isomer, unassigned; (+)) (as salt: maleate) [Example 26, (+)-dimethyl-[6-(2-methyl-5-phenyl-2,3,4,5-tetrahydro-1H-benzo[c]azepine-8-yl)-pyridazin-3-yl]-amine] came in with a melting point of 99 to 102 °C.
For the compound `Cc1ccc(-c2ccc3c(c2)CN(C)CCC3c2ccc3sccc3c2)nn1.O=C(O)/C=C\C(=O)O` (single isomer, unassigned; (+)) [Example 106, (+)-5-(benzo[b]thiophen-5-yl)-2-methyl-8-(6-methylpyridazin-3-yl)-2,3,4,5-tetrahydro-1H-benzo[c]azepine, maleate salt], the melting point lay in the range of 105 to 109 °C.
Turning to `Cc1ccc2c(c1)CN(C)CCC2c1ccc(F)cc1` (single isomer, unassigned; (+)) (as salt: hydrochloride) [Example 16, (+)-5-(4-fluorophenyl)-2,8-dimethyl-2,3,4,5-tetrahydro-1H-benzo[c]azepine], the melting point fell in the range of 243 to 244 °C.
